Measurements as given in PubChem BioAssay AID1259411 (Chemical Carcinogenesis Research Information System (CCRIS), 2018).
Activity calls are given as the source filed them. No rule for the calls is given here.

System: rodent carcinogenicity bioassays, tumor incidence
Assay: CCRIS carcinogenicity studies
Conditions: Dose: 0
In short: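 Archive of carcinogenicity, mutagenicity, tumor promotion and tumor inhibition results drawn from journals, NCI reports and other sources, expert-reviewed; covers 1985-2011 and is no longer updated.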

Measured: carcinogen call

Nc1ccc2nc3ccccn3c2n1
active: Species: MOUSE, Strain/Sex: CDF1/FEMALE, Route: ORAL, 0.05% IN DIET FOR UP TO 685 D (STUDY DURATION: 685 D), Tumor Site: Type of Lesion: LIVER: HEPATOCELLULAR ADENOMA OR CARCINOMA, BLOOD VESSELS: HEMANGIOENDOTHELIOMA OR HEMANGIOENDOTHELIAL SARCOMA active; positive | Species: MOUSE, Strain/Sex: CDF1/MALE, Route: ORAL, 0.05% IN DIET FOR UP TO 685 D (STUDY DURATION: 685 D), Tumor Site: Type of Lesion: LIVER: HEPATOCELLULAR ADENOMA OR CARCINOMA, BLOOD VESSELS: HEMANGIOENDOTHELIOMA OR HEMANGIOENDOTHELIAL SARCOMA active; positive | Species: RAT, Strain/Sex: F344/FEMALE, Route: ORAL, 500 PPM IN DIET (AV DAILY DOSE: 4.9 MG) FOR 24 MO (STUDY DURATION: 104 WK), Tumor Site: Type of Lesion: SMALL INTESTINE: ADENOMA OR ADENOCARCINOMA OR MUCINOUS CARCINOMA, LARGE INTESTINE: ADENOMA OR ADENOCARCINOMA OR MUCINOUS active; positive | Species: RAT, Strain/Sex: F344/MALE, Route: ORAL, 500 PPM IN DIET (AV DAILY DOSE: 7.5 MG) FOR 24 MO (STUDY DURATION: 104 WK), Tumor Site: Type of Lesion: LIVER: HEPATOCELLULAR CARCINOMA OR ANAPLASTIC HEPATOMA, SMALL INTESTINE: ADENOMA OR ADENOCARCINOMA OR MUCINOUS CARCINOMA active; positive

CCOP(=S)(OCC)SC1OCCOC1SP(=S)(OCC)OCC (stereo not given)
inactive: Species: MOUSE, Strain/Sex: B6C3F1/FEMALE, Route: ORAL, 467, 935 PPM IN DIET, TWA, 467, 935 PPM IN DIET, TWA inactive; negative | Species: MOUSE, Strain/Sex: B6C3F1/MALE, Route: ORAL, 284, 567 PPM IN DIET, TWA, 284, 567 PPM IN DIET, TWA inactive; negative | Species: RAT, Strain/Sex: OSBORNE-MENDEL/FEMALE, Route: ORAL, 45, 90 PPM IN DIET, TWA, 45, 90 PPM IN DIET, TWA inactive; negative | Species: RAT, Strain/Sex: OSBORNE-MENDEL/MALE, Route: ORAL, 90, 180 PPM IN DIET, TWA, 90, 180 PPM IN DIET, TWA inactive; negative

OC(c1ccc(Cl)cc1)(c1cncnc1)c1ccccc1Cl (stereo not given)
inactive: Species: Rat, Strain/Sex: Wistar/Female (120/Control group; 80/Experimental group), Route: Oral, 50, 130, 350 ppm in diet for 24 mo, study duration 24 mo, 50, 130, 350 ppm in diet for 24 mo, study duration 24 mo inactive; negative (nonstatistical increase in hepatocellular adenomas) | Species: Rat, Strain/Sex: Wistar/Male (120/Control group; 80/Experimental group), Route: Oral, 50, 130, 350 ppm in diet for 24 mo, study duration 24 mo, 50, 130, 350 ppm in diet for 24 mo, study duration 24 mo inactive; negative (nonstatistical increase in hepatocellular adenomas)
